Measured values from PMC12392461, “Beyond Estrogenicity: A Comparative Assessment of Bisphenol A and Its Alternatives in In Vitro Assays Questions Safety of Replacements” (Environmental Science & Technology, 2025).
Read-outs that look alike come from different tables or passages of the source.

Assays:
[1] = target: T1, Peroxisome proliferator-activated receptor γ (Homo sapiens, UniProt P37231); assay: cell-based; conditions: PPARγ bioassay, dosing range all; for EC10, linear: linear model; for logEC10: log-logistic model
T1 sequence (P37231 238-505 limits assumed): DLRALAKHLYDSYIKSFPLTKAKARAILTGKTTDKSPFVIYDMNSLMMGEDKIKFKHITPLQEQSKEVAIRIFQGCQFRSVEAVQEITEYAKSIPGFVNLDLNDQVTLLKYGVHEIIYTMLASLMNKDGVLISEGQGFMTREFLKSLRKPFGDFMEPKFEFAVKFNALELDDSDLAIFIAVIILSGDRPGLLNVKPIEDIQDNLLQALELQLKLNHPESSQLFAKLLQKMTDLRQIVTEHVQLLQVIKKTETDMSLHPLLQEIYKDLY
Description: All bioassay media components and the ERα-UAS-bla GripTite and PPARγ-UAS-bla cells were obtained from Thermo Fisher Scientific (Waltham, MA, USA). AREc32 reporter gene cells based on MCF7 were provided by C. Roland Wolf (Cancer Research UK); AhR CALUX cells (H4L7.5c2 derived from H4IIe) were provided by Michael Denison (UC Davis, USA); and SH-SY5Y cells were purchased from Sigma-Aldrich.
(§1) Cell culture conditions and bioassay protocols including response detection are provided in Text S2.1–2.4 and Table S3. − Cell viability was determined from cell confluency using an IncuCyte S3 Live-Cell Analysis System (Sartorius AG, Essen, Germany) before and after exposure, except for SH-SY5Y cells (live–dead staining with Nuclear Green LcS1 and propidium iodide, Abcam, UK). For metabolic activation experiments, cell viability was assessed using the ToxBLAzer DualScreen Kit (Thermo Fisher Scientific) to capture the remaining toxicity in ERα-UAS-bla GripTite after treatment with the aCYP catalyst (details in Text S2.4).
(§2) For ARE, the concentration that triggered an induction ratio of 1.5 (ECIR1.5) was used as the benchmark value, as detailed in Text S2.5. IC10 values also served as a threshold for data analysis in all assays; only concentrations below IC10 were considered when deriving EC10 or ECIR1.5.
The maximum efficacy (Emax%) refers to the maximum of the log–logistic concentration–response curve attained by test chemicals compared to the reference chemical’s maximum and was obtained for both ERα and PPARγ. […]
S2: Cell culture and bioassays
S2.1: Cell Culturing Conditions
All suppliers and sources are given in detail in SI-Excel S3. The bioassay media for the different assays were prepared as follows: Assay medium for ER alpha-UAS-bla GripTite (ERα) and […]
2% charcoal-stripped FBS, and 100 U/mL penicillin-streptomycin. […]
(§3) S2.2: Cell Seeding and Incubation. For all bioassays, cell suspensions in the respective assay medium were dispensed into each well of 384-well plates using a MultiFlo Dispenser (Biotek, (now Agilent), Winooski, VT, U.S.). After seeding, the plates were incubated at 37° C and 5% CO₂ for […]. The final cell densities and plate types were as follows: Black poly-D-lysine […]
6500 cells/well, ERα: 5000 cells/well. White 384-well plates with a clear bottom (Product No. […]
S2.3: Chemical Dosing and Assay Analysis Procedures.

[2] = system: H4IIe (AhR CALUX); conditions: for IC10, H4IIe, AhR: H4IIe (AhR assay cells)
Description: as §1, §2
(§4) We measured the cytotoxicity of BPA and its alternatives in HEK293H (PPARγ), HEK293T (ERα), H4IIe (AhR CALUX), MCF7 (ARE/MMP), and differentiated SH-SY5Y cells (Table S6). […]
as §3
(§5) 6500 cells/well, ERα: 5000 cells/well. White 384-well plates with a clear bottom (Product No.
(§6) NYC, U.S.) for AhR: 3250 cells/well. Black Collagen I coated plates were used (Product No.
(§7) S2.3: Chemical Dosing and Assay Analysis Procedures. The dosing procedure and high-throughput assay workflow have been described in detail before. 9 The dosing concentrations […]
(§8) Stock solutions were then either added directly to the respective cell culture medium or evaporated under nitrogen, followed by replenishment with fresh medium. The final solvent content in each well was kept below 1% for methanol, 0% for acetonitrile.
(§9) Dosing plates were prepared as 11 -step serial dilutions using a Hamilton Microlab Star robotic system (Hamilton, Bonaduz, Switzerland), and chemicals were dosed in duplicates by transferring 10 μL twice from the dosing plates to the cell plates . After quantifying cell confluency as described in S2. 4., the exposed cells were incubated at 37° C and 5% CO₂ for an additional 24 h. All chemicals were tested in all assays with at least three independent […]
(§10) S2.4: Cell Viability Measurement s and bioanalytical protocols . The confluency as a measure of cell viability was determined with an IncuCyte S3 Live -Cell Analysis System (Sartorius AG, Essen, Germany). With this method the confluency of cells in a microscopy image are normalized to control wells without cells and compared before and after 24 hours of exposure.
(§11) This method has been described previously 13. […]

[3] = system: HEK293T (ERα); conditions: for IC10, HEK293, ERα: HEK293 (ERα assay cells)
Description: as §1, §2, §4, §3, §5, §6, §7, §8, §9, §10, §11

[4] = system: MCF7 (ARE/MMP); conditions: for IC10, MCF7, ARE: MCF7, ARE readout; for IC10, MCF7, MMP: MCF7, MMP readout
Description: as §1, §2, §4, §3, §5, §6, §7, §8, §9, §10, §11

[5] = system: SH-SY5Y cells; conditions: for IC10, SH-S5Y5, NOI: cytotoxicity, NOI assay cells
Description: as §1, with “S2.4). […]” for “S2.4).”
as §4
medium, supplemented with 2% B-27 Supplement and 2 mM GlutaMAX Supplement. SH - SY5Y cells were differentiated with 10 µM all-trans retinoic acid prior to the assay.
S2.2: Cell Seeding and Incubation. For all bioassays, cell suspensions in the respective assay medium were dispensed into each well of 384-well plates using a MultiFlo Dispenser (Biotek, (now Agilent), Winooski, VT, U.S.). After seeding, the plates were incubated at 37° C and 5% […]
as §6, §7, §8, §9, §10
This method has been described previously 13. Cell viability of SH-SY5Y cells was measured […]
propidium iodide (PI, Abcam, Cambridge, U.K.).14 Nuclear Green LCS1 is a membrane-permeable dye that stains the nuclei of all cells, whereas PI only enters cells with compromised membrane integrity (non-viable cells). After staining, live cells show green nuclei without red fluorescence, while dead cells display both green and red nuclear fluorescence due to PI […]
intercalation. […]

[6] = Bioassay AhR, cytotoxicity, dosing range all
[7] = Bioassay AhR, cytotoxicity, dosing range all, linear model fit
[8] = Bioassay AhR, cytotoxicity, dosing range all, log-logistic model fit
[9] = Bioassay ARE, cytotoxicity, dosing range all, linear model fit
[10] = Bioassay ARE, cytotoxicity, dosing range all, log-logistic model fit
[11] = MMP bioassay cytotoxicity, dosing range all, linear model
[12] = MMP bioassay cytotoxicity, dosing range all, log-logistic model
[13] = NOI bioassay cytotoxicity, dosing range all, linear model
[14] = NOI bioassay cytotoxicity, dosing range all, log-logistic model
[15] = Bioassay ERα, cytotoxicity, dosing range all
[16] = Bioassay ERα, cytotoxicity, dosing range all, linear model fit
[17] = Bioassay ERα, cytotoxicity, dosing range all, log-logistic model fit
[18] = Bioassay ARE, cytotoxicity, dosing range all
[19] = MMP bioassay cytotoxicity, dosing range all
[20] = NOI bioassay cytotoxicity, dosing range all

SMILES | EC10, linear [1] | logEC10 [1] | IC10, linear [2, 7] | logIC10 [2, 8] | IC10, H4IIe, AhR ([2]; cytotoxicity) [µM] | IC10, linear [4, 9] | logIC10 [4, 10] | IC10, linear [4, 11] | logIC10 [4, 12] | IC10, linear [5, 13] | logIC10 [5, 14] | logIC10 ([2]; rat, 24 h) | logIC10 ([3]; human, 24 h) | IC10, HEK293, ERα ([3]; cytotoxicity) [µM] | IC10, linear transformed [4, 18] | IC10, linear transformed [4, 19] | IC10, MCF7, ARE ([4]; cytotoxicity) [µM] | IC10, MCF7, MMP ([4]; cytotoxicity) [µM] | IC10, SH-S5Y5, NOI [5] [µM] | further results
CC1(C)C(O)C(C)(C)C1O (racemic) [r-TMCD, 2,2,4,4-Tetramethyl-1,3-cyclobutanediol (racemate)] | no effect | no effect | 8.29E-03 | -2.04 | 8290 | no cytotoxicity | no cytotoxicity | no cytotoxicity | no cytotoxicity | no cytotoxicity | no cytotoxicity | – | – | – | – | – | – | – | – | IC10, linear transformed [2, 6]: 9.14E-03; Toxic ratio (TR) TRAhR ([2]; against baseline cytotoxicity): 0.12; IC10, linear ([3]; ERα bioassay cytotoxicity, dosing range all, linear model): no cytotoxicity; logIC10 ([3]; ERα bioassay cytotoxicity, dosing range all, log-logistic model): no cytotoxicity
O=S(=O)(c1ccc(O)cc1)c1ccccc1O [2,4-BPS, 2,4'-Dihydroxydiphenyl sulfone] | no effect | no effect | – | – | – | – | – | – | – | – | – | -3.52 | -3.36 | – | – | – | – | – | – | Toxic ratio (TR) TRAhR ([2]; rat, 24 h): 3.11; Toxic ratio (TR) TRERα ([3]; human, 24 h): 1.27; Toxic ratio (TR) TRARE ([4]; human, 24 h): 0.77; Toxic ratio (TR) TRMMP ([4]; human, 24 h): 0.77; logIC10 ([4]; human, 24 h): -3.05; Toxic ratio (TR) TRNOI ([5]; human, 24 h): 1.29; logIC10 ([5]; human, 24 h): -3.31
CC(C)(c1ccc(OCC2CO2)cc1)c1ccc(OCC2CO2)cc1 (centres unmarked) [BADGE, Bisphenol A diglycidyl ether] | no effect | no effect | no cytotoxicity | no cytotoxicity | – | 3.62E-05 | -4.41 | 8.59E-05 | -4.10 | 5.39E-05 | -4.24 | – | – | 18.8 | 3.85E-05 | 7.87E-05 | 38.5 | 78.7 | 57.3 | IC10, linear transformed [3, 15]: 1.08E-05; IC10, linear [3, 16]: no cytotoxicity; logIC10 [3, 17]: -4.73; Toxic ratio (TR) TRERα ([3]; against baseline cytotoxicity): 0.54; Toxic ratio (TR) TRARE ([4]; against baseline cytotoxicity, ARE readout): 0.61; Toxic ratio (TR) TRMMP ([4]; against baseline cytotoxicity, MMP readout): 0.30; IC10, linear transformed [5, 20]: 5.73E-05; Toxic ratio (TR) TRNOI ([5]; against baseline cytotoxicity): 0.32
CC(C)CC(C)(c1ccc(O)cc1)c1ccc(O)cc1 [BP-MIBK, 4,4'-(1,3-Dimethylbutylidene)diphenol] | no effect | no effect | – | – | – | – | – | – | – | – | – | -4.05 | -5.04 | – | – | – | – | – | – | IC10, linear [2]: no cytotoxicity; IC10, linear [3]: no cytotoxicity; logIC10 [3]: no cytotoxicity; IC10, linear [4]: no cytotoxicity; IC10, linear [5]: no cytotoxicity; logIC10 ([5]; human, 24 h): -4.10
O=S(=O)(c1ccc(O)cc1)c1ccc(O)cc1 [BPS, 4,4'-Sulfonyldiphenol] | 1.02E-05 | no effect | – | – | – | 1.31E-03 | -2.86 | 1.44E-03 | -2.92 | 1.85E-04 | -3.71 | – | – | 520 | 1.39E-03 | 1.22E-03 | 1390 | 1220 | 195 | IC10, linear transformed ([3]; Bioassay ERα, cytotoxicity, dosing range high): 1.03E-04; IC10, linear ([3]; Bioassay ERα, cytotoxicity, dosing range high, linear model fit): 5.20E-04; logIC10 ([3]; Bioassay ERα, cytotoxicity, dosing range high, log-logistic model fit): -3.33; IC10, linear transformed ([3]; ERα bioassay cytotoxicity, dosing range low): 5.72E-05; IC10, linear ([3]; ERα bioassay cytotoxicity, dosing range low, linear model): no cytotoxicity; logIC10 ([3]; ERα bioassay cytotoxicity, dosing range low, log-logistic model): no cytotoxicity
Oc1ccc(C2(c3ccc(O)cc3)CCCCC2)cc1 [BPZ, 1,1'-Bis(4-hydroxyphenyl)cyclohexane] | – | – | 1.06E-04 | -4.08 | 83.8 | 3.45E-05 | -4.14 | 3.30E-05 | -4.48 | 7.12E-05 | -4.10 | – | – | 6.64 | 7.27E-05 | 3.28E-05 | 72.7 | 32.8 | 78.9 | IC10, linear transformed [2, 6]: 8.38E-05; IC10, linear transformed [3, 15]: 8.13E-06; IC10, linear [3, 16]: 6.53E-06; logIC10 [3, 17]: -5.18; IC10, linear transformed [5, 20]: 7.89E-05
CC(C)(c1cc(Br)c(O)c(Br)c1)c1cc(Br)c(O)c(Br)c1 [TBBPA, 3,3',5,5'-Tetrabromobisphenol A] | – | – | – | – | – | – | – | – | – | no cytotoxicity | no cytotoxicity | -3.80 | -4.81 | – | – | – | – | – | – | IC10, linear [3]: no cytotoxicity
CC1(C)[C@H](O)C(C)(C)[C@H]1O [t-TMCD, trans-2,2,4,4-Tetramethyl-1,3-cyclobutanediol] | – | – | – | – | 8940 | – | – | – | – | – | – | – | – | – | – | – | – | – | – | Toxic ratio (TR) TRAhR ([2]; against baseline cytotoxicity): 0.11
